Laboratory results reported in PMC12134304, “Exploring novel of 1,2,4-triazolo[4,3-a]quinoxaline sulfonamide regioisomers as anti-diabetic and anti-Alzheimer agents with in-silico molecular docking simulation” (Scientific Reports, 2025).

What was measured:
Format in all cases: biochemical
α-amylase = experiment: in vitro enzyme inhibition assay (Wickramaratne method); conditions: read-out: The in vitro median inhibitory concentrations (IC50 ± SE) (μM) / Anti-diabetic activity ^a / α-amylase
α-glucosidase = experiment: in vitro enzyme inhibition assay (Pistia-Brueggeman method); conditions: read-out: The in vitro median inhibitory concentrations (IC50 ± SE) (μM) / Anti-diabetic activity ^a / α-glucosidase
[1] = target: acetylcholinesterase (AChE) (Homo sapiens, UniProt P22303); experiment: Ellman's method, single-concentration percent inhibition
Chain of acetylcholinesterase (AChE) (P22303 32-614): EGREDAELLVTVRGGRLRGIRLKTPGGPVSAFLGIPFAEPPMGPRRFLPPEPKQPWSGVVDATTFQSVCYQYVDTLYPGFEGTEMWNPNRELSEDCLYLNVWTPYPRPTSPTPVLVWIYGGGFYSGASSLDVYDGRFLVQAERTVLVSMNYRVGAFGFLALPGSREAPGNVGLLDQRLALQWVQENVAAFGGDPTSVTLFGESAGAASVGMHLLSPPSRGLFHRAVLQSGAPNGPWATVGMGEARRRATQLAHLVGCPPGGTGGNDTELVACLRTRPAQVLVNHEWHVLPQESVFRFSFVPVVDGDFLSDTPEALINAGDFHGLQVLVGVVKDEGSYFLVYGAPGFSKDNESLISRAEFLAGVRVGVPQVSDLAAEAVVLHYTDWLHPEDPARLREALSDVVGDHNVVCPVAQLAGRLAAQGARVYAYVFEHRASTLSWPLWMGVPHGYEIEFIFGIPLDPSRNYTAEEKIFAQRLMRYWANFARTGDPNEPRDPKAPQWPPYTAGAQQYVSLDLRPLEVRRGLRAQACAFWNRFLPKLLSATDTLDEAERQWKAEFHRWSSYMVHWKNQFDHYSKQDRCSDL

Row | Structure (SMILES) | IC50 (α-amylase) [µM] | IC50 (α-glucosidase) [µM] | The in vitro inhibitory percentage (IP ± SE) of the designed two isomers sulfonamide quinoxaline derivatives at 100 μM / Anti-Alzheimer activity ^a / AChE [1]
1 | C=CCNc1nnc2c(N3CCCC3)nc3ccc(S(=O)(=O)N4CCCC4)cc3n12 [10a, N-Allyl-4-(pyrrolidin-1-yl)-8-(pyrrolidin-1-ylsulfonyl)-[1,2,4]triazolo[4,3-a]quinoxalin-1-amine] | 6.89 ± 0.09 | 3.46 ± 0.06 | 
2 | Cc1nnc2c(N3CCCC3)nc3cc(S(=O)(=O)N4CCCC4)ccc3n12 [11b, 1-Methyl-4-(pyrrolidin-1-yl)-7-(pyrrolidin-1-ylsulfonyl)-[1,2,4]triazolo[4,3-a]quinoxaline] |  |  | 44.78 ± 0.01
